Measured values reported in ChEMBL document CHEMBL1137319, “Thyroid receptor ligands. 6. A high affinity "direct antagonist" selective for the thyroid hormone receptor” (J Med Chem, 2006).
pIC50: −log10 of the molar value.

Experiments:
[1] = target: T1, Thyroid hormone receptor alpha (Homo sapiens, UniProt P10827); assay: Binding affinity to human TRalpha1
T1 sequence (P10827 whole entry): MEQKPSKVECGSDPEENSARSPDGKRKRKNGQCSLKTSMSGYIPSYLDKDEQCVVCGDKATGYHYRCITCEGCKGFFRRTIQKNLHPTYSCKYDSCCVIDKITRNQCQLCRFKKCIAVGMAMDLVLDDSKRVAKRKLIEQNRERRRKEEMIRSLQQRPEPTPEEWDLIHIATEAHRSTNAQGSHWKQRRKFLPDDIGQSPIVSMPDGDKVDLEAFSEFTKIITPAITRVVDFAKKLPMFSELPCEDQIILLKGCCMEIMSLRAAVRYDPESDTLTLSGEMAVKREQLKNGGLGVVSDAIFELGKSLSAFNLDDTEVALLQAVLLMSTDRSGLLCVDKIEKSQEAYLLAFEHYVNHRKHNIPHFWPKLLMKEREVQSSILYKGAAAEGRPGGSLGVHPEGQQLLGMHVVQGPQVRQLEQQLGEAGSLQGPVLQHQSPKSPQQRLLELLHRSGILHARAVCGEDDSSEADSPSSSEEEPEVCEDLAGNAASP

[2] = target: T2, Thyroid hormone receptor beta (Homo sapiens, UniProt P10828); assay: Binding affinity to human TRbeta1
T2 sequence (P10828 whole entry): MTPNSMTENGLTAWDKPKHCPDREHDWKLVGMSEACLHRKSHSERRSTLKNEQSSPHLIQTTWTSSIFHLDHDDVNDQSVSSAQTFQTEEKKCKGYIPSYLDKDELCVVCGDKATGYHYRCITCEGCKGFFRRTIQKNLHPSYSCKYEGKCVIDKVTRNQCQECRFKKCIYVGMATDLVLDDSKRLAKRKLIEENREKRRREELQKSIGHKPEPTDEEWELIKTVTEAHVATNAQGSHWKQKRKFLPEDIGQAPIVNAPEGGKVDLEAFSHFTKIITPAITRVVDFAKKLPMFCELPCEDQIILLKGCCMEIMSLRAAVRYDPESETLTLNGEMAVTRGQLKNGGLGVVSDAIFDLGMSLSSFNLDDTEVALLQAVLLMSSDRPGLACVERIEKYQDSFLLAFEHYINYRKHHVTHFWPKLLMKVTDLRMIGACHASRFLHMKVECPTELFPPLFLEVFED

[3] = target: T1, Thyroid hormone receptor alpha; assay: Activity at human TR-alpha-1 transfected in CHO K1 cells by alkaline phosphatase reporter gene assay
[4] = target: T2, Thyroid hormone receptor beta; assay: Activity at human TR-beta-1 transfected in CHO K1 cells by alkaline phosphatase reporter gene assay
Rattus norvegicus [5] = assay: Increase in LDL cholesterol level in orally dosed cholesterol-fed Sprague-Dawley rat relative to control; format: functional
Rattus norvegicus [6] = assay: Decrease in heart rate in orally dosed cholesterol-fed Sprague-Dawley rat relative to control; format: functional; parameters: scale not given: the % may be the effect or the level left

O=C(O)CCc1ccccc1OCC1C(Br)CCCC1Br (stereo not drawn)
pIC50 [1]: 6.34 | pIC50 [2]: 6.72

CC(C)c1cc(Oc2c(Br)cc(CCC(=O)O)cc2Br)cc(/C=C/c2ccncc2)c1O
pIC50 [1]: 7.44 | pIC50 [2]: 7.66 | pIC50 [3]: 7.49 | pIC50 [4]: 7.49 | Activity (Rattus norvegicus [5]): 13% | Activity (Rattus norvegicus [6]): -10%
